Laboratory results: publication PMC12673918, “Design, Synthesis, and Selective Antiproliferative Activity of Indolizine Derivatives as Microtubule Destabilizers” (Archiv Der Pharmazie, 2025)

Tests used:
Assay type in all cases: cell-based
[1] = biological target: T1, human P2X7 receptor (Homo sapiens, UniProt Q99572); assay: YO‐PRO‐1 dye uptake assay for the P2X7 receptor; details: for inhibition at 10 µM: P2X7, read-out: % Inhibition of P2X7R at 10 µM compounds’ concentration
T1 construct: host or cells: HEK-293
T1 sequence (Q99572 1-595): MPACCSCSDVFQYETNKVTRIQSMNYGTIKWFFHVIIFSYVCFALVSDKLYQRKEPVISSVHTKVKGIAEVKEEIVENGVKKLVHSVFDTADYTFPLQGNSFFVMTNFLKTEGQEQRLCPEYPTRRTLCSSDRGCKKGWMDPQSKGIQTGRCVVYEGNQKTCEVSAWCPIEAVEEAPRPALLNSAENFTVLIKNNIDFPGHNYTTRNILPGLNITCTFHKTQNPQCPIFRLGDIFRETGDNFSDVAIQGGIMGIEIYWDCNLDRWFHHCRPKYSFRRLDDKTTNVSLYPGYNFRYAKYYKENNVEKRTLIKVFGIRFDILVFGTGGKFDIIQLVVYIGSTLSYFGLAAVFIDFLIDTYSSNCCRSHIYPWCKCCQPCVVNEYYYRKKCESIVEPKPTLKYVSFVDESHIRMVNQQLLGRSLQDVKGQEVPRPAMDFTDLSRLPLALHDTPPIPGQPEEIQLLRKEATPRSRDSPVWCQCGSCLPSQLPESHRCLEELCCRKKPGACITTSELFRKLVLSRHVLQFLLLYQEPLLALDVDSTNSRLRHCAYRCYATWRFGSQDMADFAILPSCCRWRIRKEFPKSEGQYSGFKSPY
Description: HEK‐293 cell lines stably expressing human P2X7 receptor (hP2X7R‐HEK‐293, B'SYS GmbH, Witterswil, Switzerland) were maintained in a 50/50 mix of Dulbecco's Modified Eagle Medium and F12 medium (DMEM/F12) supplemented with 9% (v/v) FCS, 1% (v/v) Penicillin/Streptomycin (10000 I.U./mL, 10 mg/mL in 0.9% NaCl) and G418 (100 µg/mL) at 37°C and 5% CO2. Cells were subcultured in cell culture 75 cm^2 flasks and split every 2‐4 days (1:3; 1:6; 1:10) once confluent.
HEK‐293 cell lines stably expressing human P2X7 receptor were seeded into black‐walled Nunc 96‐well optical bottom plates (Thermo Fisher Scientific) at 2.0–4.0 × 10^4 cells/well and incubated at 37°C for 24–48 h. After removing the culture medium, cells were washed with 100 µL wash buffer (280 mM Sucrose; 5.6 mM KCl; 0.5 mM CaCl2; 10 mM D‐Glucose; 10 mM HEPES; 5 mM N‐Methyl‐D‐glucamine (pH 7.4)). Then, 50 µL assay buffer (280 mM Sucrose; 6.4 mM KCl, 10 mM D‐Glucose; 10 mM HEPES; 5.0 mM N‐Methyl‐D‐glucamine (pH 7.4)) and 50 µL of antagonist dilutions (10^–5–10^–9 M) in assay buffer were added, and the cells were incubated at 37°C for 30 min. […] Finally, the uptake of YO‐PRO‐1 dye was recorded in a 9‐point‐well scan by following the fluorescence change using a FlexStation 3 Multi‐Mode Microplate Reader (Molecular Devices, San Jose, CA, USA, Software SoftMax7 Pro, endpoint protocol, well scan with reading pattern “fill scan”, λ ex = 485 nm, λ em = 535 nm). To determine the concentration‐dependent uptake inhibition by antagonists, the YO‐PRO‐1 uptake, expressed as RFU, was plotted against the concentrations of the compounds.

[2] = system: CAL‐27 (oral carcinoma); assay: Resazurin cell viability assay, CAL‐27; details: 50 µM, 72 h, mean ± SD, n = 3; for inhibition at 50 µM: Homo sapiens, CAL-27, read-out: % Cellular growth inhibition (at 50 µM) CAL‐27
Description: (§1) The tongue squamous cell carcinoma cell line CAL‐27 (ATCC CRL‐2095), breast carcinoma BT‐20 (ATCC HTB‐19), gastric carcinoma HGC‐27 (BCRJ Code 0310), and normal oral fibroblast OHMF (culture of fibroblasts derived from human oral healthy mucosa, approved by the Research Ethics Committee of the University of São Paulo, Campus of Ribeirão Preto, Brazil (with protocol number 049) were cultured in DMEM medium (DMEM, Sigma‐Aldrich, St. Louis, MO, USA) supplemented with 10% fetal bovine serum and a solution of penicillin (100 U/mL) and streptomycin (100 μg/mL). The cultures were maintained in a humidified incubator with 5% CO₂ at 37°C.
(§2) Cell viability was analyzed using the resazurin assay. For this, cells were seeded in 96‐well plates (1 × 10^3 cells per well) and incubated at 37°C with 5% CO₂ overnight for cell adhesion. Subsequently, the cells were treated with different compounds (0–50 µM) for 72 h. After treatment, the medium was replaced with phenol‐free DMEM medium (Sigma‐Aldrich) containing resazurin at a concentration of 44 µM (Sigma‐Aldrich). After incubation for 4 h at 37°C, fluorescence detection was performed (excitation 530/25 nm, emission 590/35 nm) using a microplate fluorimeter (Synergy 2, Biotek). Initial cell growth inhibition assays were performed in triplicate or quadruplicate, while IC50 determinations were conducted in triplicate. Data were plotted, and IC₅₀ values were determined by nonlinear regression using GraphPad Prism software 9.0.
(§3) ^a Cell viability was assessed using the resazurin assay after 72 hours of compound treatment. Fluorescence was measured to estimate % of cellular growth inhibition at 50 µM values, based on triplicate experiments.
(§4) ^b IC50 values were determined using the same resazurin-based assay, with fluorescence measurements performed after 72 hours of treatment. These experiments were carried out in triplicate.

[3] = system: CAL‐27, BT‐20 and HGC‐27 cancer cell lines; assay: Resazurin antiproliferative screening, cancer cell line panel; details: 50 μM, 70% inhibition threshold
Description: as §1, §2

[4] = system: BT‐20 (breast carcinoma); assay: Resazurin cell viability assay, BT‐20; details: 50 µM, 72 h, mean ± SD, n = 3; for inhibition at 50 µM: Homo sapiens, BT-20, read-out: % Cellular growth inhibition (at 50 µM) BT‐20
Description: as §1, §2, §3, §4

[5] = system: HGC‐27 (gastric carcinoma); assay: Resazurin cell viability assay, HGC‐27; details: 50 µM, 72 h, mean ± SD, n = 3; for inhibition at 50 µM: Homo sapiens, HGC-27, read-out: % Cellular growth inhibition (at 50 µM) HGC‐27
Description: as §1, §2, §3, §4

[6] = biological target: T2, human P2X4 receptor (Homo sapiens, UniProt Q99571); assay: Ca2+‐flux assay for the hP2X4 receptor; details: for inhibition at 10 µM: read-out: % Inhibition of P2X4R at 10 µM compounds’ concentration
T2 construct: expressed in transfected cells; host or cells: human 1321N1 astrocytoma cells
T2 sequence (Q99571 1-388): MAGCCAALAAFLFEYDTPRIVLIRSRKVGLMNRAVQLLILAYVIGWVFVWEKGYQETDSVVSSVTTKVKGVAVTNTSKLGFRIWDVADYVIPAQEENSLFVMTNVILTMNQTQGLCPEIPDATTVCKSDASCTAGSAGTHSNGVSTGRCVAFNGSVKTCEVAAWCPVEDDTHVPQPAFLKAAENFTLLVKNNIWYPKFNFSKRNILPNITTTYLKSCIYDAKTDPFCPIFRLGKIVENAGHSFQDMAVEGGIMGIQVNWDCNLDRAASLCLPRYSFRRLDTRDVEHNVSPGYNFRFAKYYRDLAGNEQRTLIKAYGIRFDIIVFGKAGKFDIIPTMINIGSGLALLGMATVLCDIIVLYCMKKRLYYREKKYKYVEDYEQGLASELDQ
Description: Human 1321N1 astrocytoma cells stably expressing the human P2X4 receptor (generated in‐house) were cultured in Dulbecco's Modified Eagle Medium supplemented with 9% (v/v) FCS, 1% (v/v) Penicillin/Streptomycin (10000 I.U./mL, 10 mg/mL in 0.9% NaCl) and puromycin (1 µg/mL) as a selection antibiotic at 37°C and 5% CO2. Cells were subcultured in cell culture 75 cm^2 flasks and split every 2–4 days (1:5; 1:6) once confluent.
1321N1 cells stably expressing human P2X4 receptor were seeded into black‐walled 96‐well plates (Thermo Fisher Scientific) at 2.5 × 10^4 cells/well and incubated at 37°C for 24–48 h. All test compounds were diluted in assay buffer solution (SBS: 135 mM NaCl; 5 mM KCl; 1 mM MgCl2.6 H2O; 1.8 mM CaCl2; 5.6 mM D‐Glucose; 10 mM HEPES, 0.1% (m/v) BSA, 0.05% (m/v) gelatine, 2.3 mM probenecid). The culture medium was removed, and 100 µL of 4 μM fluorescent Ca^2+ indicator Calbryte520AM in SBS was added and incubated at 37°C for 1 h. The dye solution was then removed, 100 µL of SBS solution and 50 µL of antagonist dilutions (10^–5–10^–9 M) in SBS were added, and the cells were incubated at room temperature for an extra 30 min. Finally, 50 µL of ATP (at a concentration of the previously determined EC50‐ value) was added by using FlexStation 3 Multi‐Mode Microplate Reader (Molecular Devices, San Jose, CA, USA, Software SoftMax7 Pro). The changes in intracellular Ca^2+ ion concentrations were monitored over 200 s (20 s baseline) by measuring the fluorescence signal at λ ex = 494 nm and λ em = 516 nm ([…] cut‐off). The concentration‐dependent decrease in Ca^2+‐flux, expressed as RFU, was plotted against the concentrations of the compounds.

% Inhibition of P2X7R at 10 µM compounds’ concentration ([1]; 10 μM)	% Inhibition of P2X4R at 10 µM compounds’ concentration ([6]; 10 μM)	inhibition at 10 µM [1]	inhibition at 10 µM [6]	SMILES	% Cellular growth inhibition (at 50 µM) CAL‐27 [2]	level of inhibition in the 50 µM screening [3]	% Cellular growth inhibition (at 50 µM) BT‐20 [4]	% Cellular growth inhibition (at 50 µM) HGC‐27 [5]	inhibition at 50 µM [2]	inhibition at 50 µM [4]	inhibition at 50 µM [5]
		-6%	-7%	COc1ccc2c(C(=O)c3ccccc3)ccn2c1 [Compound 7a, (6‐methoxyindolizin‐1‐yl)(phenyl)methanone]					20 ± 0.9%	20 ± 0.4%	18 ± 0.5%
		10%	-3%	O=C(c1ccc(Cl)cc1)c1ccn2ccccc12 [Compound 6b, (4‐chlorophenyl)(indolizin‐1‐yl)methanone]					25 ± 0.4%	32 ± 0.8%	26 ± 1%
		4%	1%	COc1ccc2c(C(=O)c3ccc(Cl)cc3)ccn2c1 [Compound 7b, (4‐chlorophenyl)(6‐methoxyindolizin‐1‐yl)methanone]					23 ± 1%	8 ± 1.3%	10 ± 1.4%

The next lines start with the molecule.

SMILES	% Inhibition of P2X7R at 10 µM compounds’ concentration ([1]; 10 μM)	% Inhibition of P2X4R at 10 µM compounds’ concentration ([6]; 10 μM)	inhibition at 10 µM [1]	inhibition at 10 µM [6]	% Cellular growth inhibition (at 50 µM) CAL‐27 [2]	level of inhibition in the 50 µM screening [3]	% Cellular growth inhibition (at 50 µM) BT‐20 [4]	% Cellular growth inhibition (at 50 µM) HGC‐27 [5]	inhibition at 50 µM [2]	inhibition at 50 µM [4]	inhibition at 50 µM [5]
CCOC(=O)c1cn2cc(OC)ccc2c1C(=O)c1cc(OC)c(OC)c(OC)c1 [Compound 8d, Ethyl [6‐methoxy‐1‐(3,4,5‐trimethoxybenzoyl)indolizine]‐2‐carboxylate]	-10%	2%			66 ± 0.8%	≤ 70%	55 ± 4.7%	44 ± 1.9%			
CCOc1cn2cc(OC)ccc2c1C(=O)c1cc(OC)c(OC)c(OC)c1 [Compound 8c, (2‐ethoxy‐6‐methoxyindolizin‐1‐yl)(3,4,5‐trimethoxyphenyl)methanone]			3%	10%					56 ± 4.6%	55 ± 4.7%	43 ± 3.5%
COc1ccc2c(C(=O)c3cc(OC)c(OC)c(OC)c3)c(-c3ccccc3)cn2c1 [Compound 8f, (6‐methoxy‐2‐phenylindolizin‐1‐yl)(3,4,5‐trimethoxyphenyl)methanone]			5%	4%					69 ± 0.4%	55 ± 1.8%	49 ± 4%
COc1ccc2c(C(=O)c3cc(OC)c(OC)c(OC)c3)c(-c3ccccn3)cn2c1 [Compound 8g, [6‐methoxy‐2‐(pyridin‐2‐yl)indolizin‐1‐yl](3,4,5‐trimethoxyphenyl)methanone]			1%	-8%					68 ± 1%	54 ± 2.8%	44 ± 0.4%
COc1ccc(C(=O)c2ccn3ccccc23)cc1 [Compound 6d, (Indolizin‐1‐yl)(4‐methoxyphenyl)methanone]			5%	0%					18 ± 0.6%	28 ± 0.5%	24 ± 1.1%
